The test deals with T1, chicken gizzard smooth muscle myosin subfragment-1 chemically crosslinked to cardiac or skeletal actin (Gallus gallus, UniProt P10587).
T1 construct: chicken gizzard smooth muscle myosin subfragment-1; from tissue; host or cells: chicken gizzard
T1 sequence (P02607 2-151): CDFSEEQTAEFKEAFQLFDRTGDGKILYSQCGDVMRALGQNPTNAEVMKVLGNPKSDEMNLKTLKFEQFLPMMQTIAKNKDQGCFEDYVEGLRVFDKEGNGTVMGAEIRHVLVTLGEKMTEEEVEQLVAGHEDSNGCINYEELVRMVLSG
T1 sequence (P10587 84-789): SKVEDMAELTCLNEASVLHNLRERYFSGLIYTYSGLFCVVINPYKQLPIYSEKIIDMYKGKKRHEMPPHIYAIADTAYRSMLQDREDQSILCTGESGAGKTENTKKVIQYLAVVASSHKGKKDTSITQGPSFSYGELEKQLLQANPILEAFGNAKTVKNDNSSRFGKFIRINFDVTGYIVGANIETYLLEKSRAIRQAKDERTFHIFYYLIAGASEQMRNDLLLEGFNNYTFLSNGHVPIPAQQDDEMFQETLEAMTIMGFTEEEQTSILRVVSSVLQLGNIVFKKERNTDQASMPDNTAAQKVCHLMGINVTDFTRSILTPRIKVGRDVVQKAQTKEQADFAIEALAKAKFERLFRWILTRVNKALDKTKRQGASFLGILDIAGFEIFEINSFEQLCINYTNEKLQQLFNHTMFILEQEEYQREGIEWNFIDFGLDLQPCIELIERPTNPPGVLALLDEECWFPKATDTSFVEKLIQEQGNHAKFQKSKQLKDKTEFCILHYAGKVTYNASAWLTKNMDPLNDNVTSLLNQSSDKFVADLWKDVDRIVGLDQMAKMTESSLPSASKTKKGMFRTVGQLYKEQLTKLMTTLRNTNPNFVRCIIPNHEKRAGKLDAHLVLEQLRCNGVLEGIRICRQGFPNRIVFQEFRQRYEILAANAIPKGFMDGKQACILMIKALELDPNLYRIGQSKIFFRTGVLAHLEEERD
In words: Smooth muscle myosin ATPase dose response assay (pyruvate kinase/horseradish peroxidase/pyruvate oxidase-coupled, amplex red fluorescence). It is filed as biochemical. Conditions: read-out: IC50 Arithmetic Mean. Put shortly: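 Chicken gizzard myosin S1 crosslinked to cardiac or skeletal actin, titrated to a set hydrolysis rate; 0.15 mM ATP, 12 mM PIPES pH 7.00, 100 mM KCl, 2 mM MgCl2. Pyruvate kinase/pyruvate oxidase/HRP coupling with amplex red fluorescence; IC50 from 4-parameter fit.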
On to `O=C(NCc1cc[nH]n1)c1ccc(-c2ccccc2)nc1NCCc1ccccn1` [{6-phenyl-2-[(2-(2-pyridyl)ethyl)amino](3-pyridyl)}-N-(pyrazol-3-ylmethyl)carboxamide], for which the IC50 was 711 nM.

With `C[C@@H](CN)CNC(=O)c1cc(F)c(-c2cnn(C)c2)nc1NCCc1cccc(F)c1` [N-((2S)-3-amino-2-methylpropyl)(5-fluoro-2-{[2-(3-fluorophenyl)ethyl]amino}-6-(1-methylpyrazol-4-yl)(3-pyridyl))carboxamide], the IC50 was determined as 1050 nM.

Turning to `C[C@H](NC(=O)OC(C)(C)C)C(=O)N1CCC[C@@H]1CNC(=O)c1cc(F)c(-c2cnn(C)c2)nc1NCCc1cccc(F)c1` [N-[2-((2R)-2-{[(5-fluoro-2-{[2-(3-fluorophenyl)ethyl]amino}-6-(1-methylpyrazol-4-yl)(3-pyridyl))carbonylamino]methyl}pyrrolidinyl)(1S)-1-methyl-2-oxoethyl](tert-butoxy)carboxamide], the IC50 is 1950 nM.

Regarding `N#Cc1ccccc1-c1ccc(C(=O)NCCCC(=O)O)c(NCCc2cccc(F)c2)n1` [4-[(6-(2-cyanophenyl)-2-{[2-(3-fluorophenyl)ethyl]amino}-3-pyridyl)carbonylamino]butanoic acid], the IC50 was determined as 627 nM.

As to `COC(=O)[C@H](C)CNC(=O)c1cc(F)c(-c2cnn(C)c2)nc1N` [methyl (2R)-3-{[2-amino-5-fluoro-6-(1-methylpyrazol-4-yl)(3-pyridyl)]carbonylamino}-2-methylpropanoate], the IC50 turned out to be 86000 nM.

In the case of `Cn1cc(-c2nc(NCCc3cccc(F)c3)c(C(=O)NC[C@@H](N)CO)cc2F)cn1` [N-((2R)-2-amino-3-hydroxypropyl)(5-fluoro-2-{[2-(3-fluorophenyl)ethyl]amino}-6-(1-methylpyrazol-4-yl)(3-pyridyl))carboxamide], the IC50 is 1260 nM.

For `N#Cc1ccccc1-c1ccc(C(=O)NC[C@H]2CCN2C(=O)CCCN)c(NCCc2cccc(F)c2)n1` [N-{[(2R)-1-(4-aminobutanoyl)azetidin-2-yl]methyl}(6-(2-cyanophenyl)-2-{[2-(3-fluorophenyl)ethyl]amino}(3-pyridyl))carboxamide], the half-maximal inhibitory concentration (IC50) is 25 nM.

On to `N#Cc1ccccc1-c1ccc(C(=O)NC[C@H]2CCCCN2S(=O)(=O)CCN)c(NCCc2cccc(F)c2)n1` [N-({(2R)-1-[(2-aminoethyl)sulfonyl](2-piperidyl)}methyl)(6-(2-cyanophenyl)-2-{[2-(3-fluorophenyl)ethyl]amino}(3-pyridyl))carboxamide], for which the IC50 came out at 178 nM.

With `N#Cc1sccc1-c1ccc(C(=O)NCc2cccnc2)c(NCCc2cccc(F)c2)n1` [(6-(2-cyano(3-thienyl))-2-{[2-(3-fluorophenyl)ethyl]amino}(3-pyridyl))-N-(3-pyridylmethyl)carboxamide], the IC50 stood at 33 nM.

In the case of `N#Cc1cc(C(=O)NC[C@H]2CCCN2)c(NCCc2cccc(F)c2)nc1-c1cn[nH]c1` [N-[((2R)pyrrolidin-2-yl)methyl](5-cyano-2-{[2-(3-fluorophenyl)ethyl]amino}-6-pyrazol-4-yl(3-pyridyl))carboxamide], the IC50 was found to be 624 nM.

With `N#Cc1ccccc1-c1ccc(C(=O)NC[C@H]2CCCN2C(=O)CCN)c(NCCc2cccc(F)c2)n1` [N-{[(2R)-1-(3-aminopropanoyl)pyrrolidin-2-yl]methyl}(6-(2-cyanophenyl)-2-{[2-(3-fluorophenyl)ethyl]amino}(3-pyridyl))carboxamide], the IC50 worked out at 47 nM.

For `O=C(NCc1cccnc1)c1ccc(-c2ccncc2)nc1NCCc1ccccn1` [N-(3-pyridylmethyl){6-(4-pyridyl)-2-[(2-(2-pyridyl)ethyl)amino](3-pyridyl)}carboxamide], the IC50 was found to be 6560 nM.

For `N#Cc1ccccc1-c1nc(NCCc2cccc(F)c2)c(C(=O)NC[C@H]2CCCN2C(=O)CCN)cc1F` [N-{[(2R)-1-(3-aminopropanoyl)pyrrolidin-2-yl]methyl}(6-(2-cyanophenyl)-5-fluoro-2-{[2-(3-fluorophenyl)ethyl]amino}(3-pyridyl))carboxamide], the IC50 came out at 42 nM.

Regarding `N#Cc1ccccc1-c1ccc(C(=O)NC[C@H]2CCCCN2C(=O)[C@H](N)CN)c(NCCc2cccc(F)c2)n1` [N-{[(2R)-1-((2R)-2,3-diaminopropanoyl)(2-piperidyl)]methyl}(6-(2-cyanophenyl)-2-{[2-(3-fluorophenyl)ethyl]amino}(3-pyridyl))carboxamide], the IC50 amounted to 161 nM.

On to `N#Cc1ccccc1-c1ccc(C(=O)NC[C@H]2CCCN2)c(NCCc2cccc(F)c2)n1` [N-[((2R)pyrrolidin-2-yl)methyl](6-(2-cyanophenyl)-2-{[2-(3-fluorophenyl)ethyl]amino}(3-pyridyl))carboxamide], for which the 50% inhibitory concentration (IC50) came to 174 nM.

With `CS(=O)(=O)N1CCCC[C@H]1CNC(=O)c1ccc(-c2ccccc2C#N)nc1NCCc1cccc(F)c1` [N-{[(2S)-1-(methylsulfonyl)(2-piperidyl)]methyl}(6-(2-cyanophenyl)-2-{[2-(3-fluorophenyl)ethyl]amino}(3-pyridyl))carboxamide], the IC50 turned out to be 1630 nM.

For the compound `N#Cc1ccccc1-c1ccc(C(=O)NCc2cccnc2CN)c(NCCc2cccc(F)c2)n1` [N-{[2-(aminomethyl)(3-pyridyl)]methyl}(6-(2-cyanophenyl)-2-{[2-(3-fluorophenyl)ethyl]amino}(3-pyridyl))carboxamide], the IC50 is 6 nM.

In the case of `CNC(=O)NCCNC(=O)c1ccc(-c2ccccc2C#N)nc1NCCc1cccc(F)c1` [(6-(2-cyanophenyl)-2-{[2-(3-fluorophenyl)ethyl]amino}(3-pyridyl))-N-{2-[(methylamino)carbonylamino]ethyl}carboxamide], the IC50 came to 866 nM.

`CC(C)C[C@H](CNC(=O)c1ccc(-c2ccccc2C#N)nc1NCCc1cccc(F)c1)NC(=O)CN` [N-((1R)-1-{[(6-(2-cyanophenyl)-2-{[2-(3-fluorophenyl)ethyl]amino}(3-pyridyl))carbonylamino]methyl}-3-methylbutyl)-2-aminoacetamide]: the concentration for half-maximal inhibition (IC50) was 913 nM.

With `CC(=O)N1CC[C@@H]1CNC(=O)c1ccc(-c2ccccc2C#N)nc1NCCc1cccc(F)c1` [N-[((2R)-1-acetylazetidin-2-yl)methyl](6-(2-cyanophenyl)-2-{[2-(3-fluorophenyl)ethyl]amino}(3-pyridyl))carboxamide], the IC50 turned out to be 43 nM.

Regarding `CC(=O)N1CC(=O)N[C@@H](CNC(=O)c2ccc(-c3ccccc3C#N)nc2NCCc2cccc(F)c2)C1` (stereo in doubt) [N-[(4-acetyl-6-oxopiperazin-2-yl)methyl](6-(2-cyanophenyl)-2-{[2-(3-fluorophenyl)ethyl]amino}(3-pyridyl))carboxamide], the IC50 worked out at 1630 nM.

Regarding `CC(C)(C)OC(=O)NCCCN1CCC(CNC(=O)c2ccc(-c3cn[nH]c3)nc2NCCc2cccc(F)c2)C1=O` (centres unmarked) [N-[(1-{3-[(tert-butoxy)carbonylamino]propyl}-2-oxopyrrolidin-3-yl)methyl](2-{[2-(3-fluorophenyl)ethyl]amino}-6-pyrazol-4-yl(3-pyridyl))carboxamide], the IC50 stood at 589 nM.

With `Cc1cc(C(=O)NC[C@H]2CCCN2)c(NCCc2cccc(F)c2)nc1-c1cnn(C)c1` [N-[((2R)pyrrolidin-2-yl)methyl](2-{[2-(3-fluorophenyl)ethyl]amino}-5-methyl-6-(1-methylpyrazol-4-yl)(3-pyridyl))carboxamide], the IC50 worked out at 901 nM.

As usually defined, the IC50 is the concentration that gives 50% inhibition.
